The record followed here is patent US9212182B2, “Bicyclic sulfonamide compounds as sodium channel inhibitors” (AMGEN INC., priority 2013, dated 2015).

As usually defined, the pIC50 is the IC50 on a negative log10 scale, so that one unit is a factor of ten.

This experiment deals with Nav 1.7 (Homo sapiens (Human), UniProt Q15858). Kind of experiment: in-vitro Nav 1.7 PX (IC50). In kind it is cell-based.

pIC50: −log10 of the molar value. Where two headings read alike, the source gives them in different places.

Chain of Nav 1.7 (Q15858 whole entry): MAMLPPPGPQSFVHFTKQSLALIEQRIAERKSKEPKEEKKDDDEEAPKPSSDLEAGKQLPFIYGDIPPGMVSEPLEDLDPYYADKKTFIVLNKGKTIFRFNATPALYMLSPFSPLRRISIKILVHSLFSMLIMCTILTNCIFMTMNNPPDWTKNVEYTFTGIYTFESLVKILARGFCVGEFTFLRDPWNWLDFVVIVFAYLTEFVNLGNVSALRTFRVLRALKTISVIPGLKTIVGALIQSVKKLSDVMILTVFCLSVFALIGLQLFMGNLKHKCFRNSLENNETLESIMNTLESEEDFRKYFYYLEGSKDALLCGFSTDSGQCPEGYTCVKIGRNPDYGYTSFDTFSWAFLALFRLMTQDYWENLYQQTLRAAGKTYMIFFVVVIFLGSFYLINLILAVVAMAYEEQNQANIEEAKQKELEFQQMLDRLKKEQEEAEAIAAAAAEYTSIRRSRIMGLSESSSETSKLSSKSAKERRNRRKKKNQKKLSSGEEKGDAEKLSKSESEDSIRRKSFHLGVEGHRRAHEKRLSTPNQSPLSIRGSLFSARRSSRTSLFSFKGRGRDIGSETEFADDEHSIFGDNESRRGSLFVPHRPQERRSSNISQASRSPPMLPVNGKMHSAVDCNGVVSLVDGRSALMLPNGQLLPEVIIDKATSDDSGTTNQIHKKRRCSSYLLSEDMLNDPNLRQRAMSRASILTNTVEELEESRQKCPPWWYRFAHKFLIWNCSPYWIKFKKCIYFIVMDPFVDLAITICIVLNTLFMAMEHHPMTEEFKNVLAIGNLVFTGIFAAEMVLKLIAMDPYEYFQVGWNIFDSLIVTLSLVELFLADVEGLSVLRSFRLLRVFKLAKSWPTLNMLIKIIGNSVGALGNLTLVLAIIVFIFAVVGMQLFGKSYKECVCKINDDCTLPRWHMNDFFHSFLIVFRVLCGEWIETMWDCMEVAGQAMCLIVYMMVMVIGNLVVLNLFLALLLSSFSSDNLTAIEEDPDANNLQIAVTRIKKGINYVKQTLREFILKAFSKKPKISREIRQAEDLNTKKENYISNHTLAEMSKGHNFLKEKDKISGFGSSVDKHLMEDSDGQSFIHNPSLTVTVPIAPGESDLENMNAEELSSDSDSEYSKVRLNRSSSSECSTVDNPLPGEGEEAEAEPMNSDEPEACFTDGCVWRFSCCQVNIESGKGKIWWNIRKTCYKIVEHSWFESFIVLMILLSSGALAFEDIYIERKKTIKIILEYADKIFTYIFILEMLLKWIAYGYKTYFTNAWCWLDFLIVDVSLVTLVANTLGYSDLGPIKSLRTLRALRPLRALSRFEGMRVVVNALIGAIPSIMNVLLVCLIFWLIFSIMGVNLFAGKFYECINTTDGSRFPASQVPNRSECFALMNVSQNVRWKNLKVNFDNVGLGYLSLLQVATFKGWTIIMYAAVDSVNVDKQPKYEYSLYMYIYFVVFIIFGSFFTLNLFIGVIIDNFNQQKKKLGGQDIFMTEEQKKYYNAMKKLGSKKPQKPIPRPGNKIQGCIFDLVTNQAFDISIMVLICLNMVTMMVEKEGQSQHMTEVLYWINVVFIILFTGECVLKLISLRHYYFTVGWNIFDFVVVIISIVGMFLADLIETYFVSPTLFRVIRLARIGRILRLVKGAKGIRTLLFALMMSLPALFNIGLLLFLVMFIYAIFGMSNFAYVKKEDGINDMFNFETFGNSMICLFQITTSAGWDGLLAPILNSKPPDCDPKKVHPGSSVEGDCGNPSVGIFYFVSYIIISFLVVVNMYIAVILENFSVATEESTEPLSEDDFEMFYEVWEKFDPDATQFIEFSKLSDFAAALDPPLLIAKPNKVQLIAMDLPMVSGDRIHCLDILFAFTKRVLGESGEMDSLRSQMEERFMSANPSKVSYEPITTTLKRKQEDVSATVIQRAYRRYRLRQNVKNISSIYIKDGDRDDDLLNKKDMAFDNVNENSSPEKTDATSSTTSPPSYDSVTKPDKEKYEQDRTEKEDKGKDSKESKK

Molecule `COc1cc(-c2cnc(C)c(Cl)c2)c(F)cc1-n1c(=O)ccc2cc(S(=O)(=O)Nc3ccon3)ccc21` [Example 532, 1-(4-(5-chloro-6-methyl-3-pyridinyl)-5-fluoro-2-methoxyphenyl)-N-3-isoxazolyl-2-oxo-1,2-dihydro-6-quinolinesulfonamide] gave a pIC50 (in-vitro PatchXpress (PX)) of 6.55. With `COc1ccc(-c2ccc(Cl)cc2)cc1-n1c(=O)ccc2cc(S(=O)(=O)Nc3ccon3)ccc21` [Example 857, 1-(4′-chloro-4-methoxy-3-biphenylyl)-N-3-isoxazolyl-2-oxo-1,2-dihydro-6-quinolinesulfonamide], where the note is “in-vitro Nav 1.7 PX data”, the pIC50 is 7.70. As for `COc1ccc(-c2ccc(F)c(F)c2)cc1-n1c(=O)ccc2cc(S(=O)(=O)Nc3ccon3)ccc21` [Example 839, 1-(3′,4′-difluoro-4-methoxy-3-biphenylyl)-N-3-isoxazolyl-2-oxo-1,2-dihydro-6-quinolinesulfonamide], the pIC50 (in-vitro Nav 1.7 PX data) was 6.95. Still for that read-out and setting: the figure for `COc1cc(-c2cc(OC)c(-n3c(=O)ccc4cc(S(=O)(=O)Nc5ncccn5)ccc43)cc2C)ccc1C` [Example 966, 1-(3′,5-dimethoxy-2,4′-dimethyl-4-biphenylyl)-2-oxo-N-2-pyrimidinyl-1,2-dihydro-6-quinolinesulfonamide] is 7.19; for `COc1cc(-c2cccc(C(F)(F)F)c2)c(F)cc1-n1c(=O)ccc2cc(S(=O)(=O)Nc3cccnn3)ccc21` [Example 820, 1-(2-fluoro-5-methoxy-3′-(trifluoromethyl)-4-biphenylyl)-2-oxo-N-3-pyridazinyl-1,2-dihydro-6-quinolinesulfonamide] it is 7.74. In the case of `COc1cc(Br)c(F)cc1-n1c(=O)ccc2cc(S(=O)(=O)Nc3cc(OCC4CC4)ncn3)ccc21` (atropisomer, axis not shown; (P)) [Example 1183, (P)-1-(4-bromo-5-fluoro-2-methoxyphenyl)-N-(6-(cyclopropylmethoxy)-4-pyrimidinyl)-2-oxo-1,2-dihydro-6-quinolinesulfonamide], the negative-log IC50 (pIC50) was 5.58. For the molecule `COc1cc(C#CC2CCCC2)c(F)cc1-n1c(=O)ccc2cc(S(=O)(=O)Nc3ncco3)ccc21` [Example 1136, 1-(4-(cyclopentylethynyl)-5-fluoro-2-methoxyphenyl)-N-1,3-oxazol-2-yl-2-oxo-1,2-dihydro-6-quinolinesulfonamide], the pIC50 (in-vitro Nav 1.7 PX data) was 7.32. Molecule `COc1cc(-c2ccc(F)c(C)c2)c(F)cc1-n1c(=O)cnc2cc(S(=O)(=O)Nc3ccon3)ccc21` [Example 1194, 1-(2,4′-difluoro-5-methoxy-3′-methyl-4-biphenylyl)-N-3-isoxazolyl-2-oxo-1,2-dihydro-6-quinoxalinesulfonamide] gave a pIC50 of 7.25. Molecule `COc1ccc(-c2cc(F)cc(Cl)c2)cc1-n1c(=O)ccc2cc(S(=O)(=O)Nc3ncco3)ccc21` [Example 864, 1-(3′-chloro-5′-fluoro-4-methoxy-3-biphenylyl)-N-1,3-oxazol-2-yl-2-oxo-1,2-dihydro-6-quinolinesulfonamide] showed a pIC50 (in-vitro Nav 1.7 PX data) of 7.37. Regarding `COc1cc(-c2cccc(C(F)(F)F)c2)ccc1-n1c(=O)ccc2cc(S(=O)(=O)Nc3ccc(C)nn3)ccc21` [Example 1138, 1-(3-methoxy-3′-(trifluoromethyl)-4-biphenylyl)-N-(6-methyl-3-pyridazinyl)-2-oxo-1,2-dihydro-6-quinolinesulfonamide], the pIC50 (in-vitro Nav 1.7 PX data) is 6.84.

Where the note is “in-vitro Nav 1.7 PX data”, `COc1cc(-c2ccc(OC)c(-n3c(=O)ccc4cc(S(=O)(=O)Nc5ccon5)ccc43)c2)ccc1Cl` [Example 870, 1-(4′-chloro-3′,4-dimethoxy-3-biphenylyl)-N-3-isoxazolyl-2-oxo-1,2-dihydro-6-quinolinesulfonamide] gave a pIC50 of 7.64.

In turn, `COc1cc(-c2ccc(F)c(C)c2)c(F)cc1-n1c(=O)ccc2cc(S(=O)(=O)Nc3ncc(F)cn3)ccc21` [Example 942, 1-(2,4′-difluoro-5-methoxy-3′-methyl-4-biphenylyl)-N-(5-fluoro-2-pyrimidinyl)-2-oxo-1,2-dihydro-6-quinolinesulfonamide] had a pIC50 (in-vitro Nav 1.7 PX data) of 7.51. Same read-out and setting: the figure for `COc1ccc(-c2cc(F)cc(Cl)c2)cc1-n1c(=O)ccc2cc(S(=O)(=O)Nc3ccon3)ccc21` [Example 859, 1-(3′-chloro-5′-fluoro-4-methoxy-3-biphenylyl)-N-3-isoxazolyl-2-oxo-1,2-dihydro-6-quinolinesulfonamide] is 6.17.

Turning to `COc1cc(-c2ccccc2C(F)(F)F)ccc1-n1c(=O)ccc2cc(S(=O)(=O)Nc3ccon3)ccc21` [Example 1052, N-3-isoxazolyl-1-(3-methoxy-2′-(trifluoromethyl)-4-biphenylyl)-2-oxo-1,2-dihydro-6-quinolinesulfonamide], the pIC50 (in-vitro Nav 1.7 PX data (PatchXpress)) is 7.27. For the molecule `COc1cc(-c2ccccn2)c(F)cc1-n1c(=O)ccc2cc(S(=O)(=O)Nc3ccon3)ccc21` [Example 594, 1-(5-fluoro-2-methoxy-4-(2-pyridinyl)phenyl)-N-3-isoxazolyl-2-oxo-1,2-dihydro-6-quinolinesulfonamide], the negative-log IC50 (pIC50) (in-vitro Nav 1.7 PX data) was 5.78. For the molecule `COc1cc(-c2cccc(F)c2)ncc1-n1c(=O)ccc2cc(S(=O)(=O)Nc3ccon3)ccc21` [Example 601, 1-(6-(3-fluorophenyl)-4-methoxy-3-pyridinyl)-N-3-isoxazolyl-2-oxo-1,2-dihydro-6-quinolinesulfonamide], the pIC50 (in-vitro Nav 1.7 PX data) was 5.75. Take `COc1cc(-c2cccc(F)c2)ncc1-n1c(=O)ccc2cc(S(=O)(=O)Nc3ccon3)ccc21` (atropisomer, axis not shown; (P)) [Example 602, (P)-1-(6-(3-fluorophenyl)-4-methoxy-3-pyridinyl)-N-3-isoxazolyl-2-oxo-1,2-dihydro-6-quinolinesulfonamide]: the pIC50 (in-vitro Nav 1.7 PX data) was 6.15. `COc1cc(-c2cc(F)cc(C(F)(F)F)c2)ccc1-n1c(=O)ccc2cc(S(=O)(=O)Nc3cc(C)ncn3)ccc21` [Example 1101, 1-(3′-fluoro-3-methoxy-5′-(trifluoromethyl)-4-biphenylyl)-N-(6-methyl-4-pyrimidinyl)-2-oxo-1,2-dihydro-6-quinolinesulfonamide] had a pIC50 (in-vitro Nav 1.7 PX data) of 7.39. Same read-out and setting: the figure for `COc1cc(-c2ccc(OC(F)(F)F)cc2)c(F)cc1-n1c(=O)ccc2cc(S(=O)(=O)Nc3ccon3)ccc21` [Example 760, 1-(2-fluoro-5-methoxy-4′-(trifluoromethoxy)-4-biphenylyl)-N-3-isoxazolyl-2-oxo-1,2-dihydro-6-quinolinesulfonamide] is 7.82. `COc1ccc(-c2cccc(F)c2)cc1-n1c(=O)ccc2cc(S(=O)(=O)Nc3ccon3)ccc21` (atropisomer, axis not shown; (M)) [Example 484, (M)-1-(3′-fluoro-4-methoxy-3-biphenylyl)-N-3-isoxazolyl-2-oxo-1,2-dihydro-6-quinolinesulfonamide] showed a pIC50 of 4.49. Consider `COc1cc(-c2cc(F)cc(Cl)c2)c(F)cc1-n1c(=O)ccc2cc(S(=O)(=O)Nc3cnsn3)ccc21` [Example 922, 1-(3′-chloro-2,5′-difluoro-5-methoxy-4-biphenylyl)-2-oxo-N-1,2,5-thiadiazol-3-yl-1,2-dihydro-6-quinolinesulfonamide], for which the pIC50 (in-vitro Nav 1.7 PX data) was 8.40.

For the molecule `COc1cc(-c2cncc(Cl)c2)c(F)cc1-n1c(=O)ccc2cc(S(=O)(=O)Nc3ccon3)ccc21` [Example 407, 1-(4-(5-chloro-3-pyridinyl)-5-fluoro-2-methoxyphenyl)-N-3-isoxazolyl-2-oxo-1,2-dihydro-6-quinolinesulfonamide], the pIC50 (in-vitro PatchXpress (PX)) is 6.80.
